Results as given in patent US20090324743A1, “PULMONARY DRUG DELIVERY” (UNIVERSITY OF STRATHCLYDE, priority 2008, published 2009).

Legend:
[1] = Cisplatin levels in samples from mice treated by inhalation or intravenous injection (HPLC); format: in vivo, BALB/c mice; conditions: for Mean cisplatin concentration, Kidney / Mean cisplatin concentration, Liver / Mean cisplatin concentration, Lung lavages / Mean cisplatin concentration, Lungs / Mean cisplatin concentration, Serum / Mean cisplatin concentration, Spleen: 5 minutes after dosing
Method: Mice were treated with the appropriate drug formulation either by intravenous injection of 0.2 ml of the appropriate drug formulation or PBS pH 7.4/saline (controls) or by inhalation with the appropriate drug formulation or saline (controls) using the Buxco® nebulisation system. 0.5 ml of the appropriate formulation or saline was added to the nebuliser which was attached to a Volumatic™ Spacer (Allen and Hanbury, Uxbridge, Middlesex). After 1.5 mins of nebulisation, the nebuliser was switched off, and the mice were exposed to the resulting aerosol for a further 5 minutes. […] Blood was taken by cardiac puncture and allowed to clot by storing for up to 12 hours at 4° C. Serum was separated from clotted blood sample by centrifuging at 13,000 rpm at 4° C., and transferred to a clean eppendorf tube. The lungs of the mouse were inflated by introducing two samples of 0.8 ml PBS pH 7.4 via the trachea and the resulting lung lavages were transferred to a clean eppendorf tube. Various organs were removed from the mouse and stored in 1.5 ml microfuge tubes. All the samples were stored at −20° C. until cisplatin levels within the samples could be determined using an HPLC assay.

B16 F0 cells [2] = assay: In vivo lung cancer efficacy study, organ weights; set-up: species or system BALB/c mice; conditions: sacrificed day 14; for Lung weight: Table 9
Method: BALB/c mice (n=8/treatment) were injected intravenously on day 0 with 1-5×10^5 B16 F0 cells which form metastatic lung and liver tumours in mice (Nakurmura et al., 2002). On day 7 mice were treated either by intravenous injection of 0.2 ml of the appropriate drug formulation or PBS pH 7.4/saline (controls) or by inhalation with the appropriate drug formulation or saline using the Buxco® nebulisation system. 0.5 ml of the appropriate formulation or saline was added to the nebuliser which was attached to a Volumatic™ Spacer (Allen and Hanbury, Uxbridge, Middlesex). After 1.5 mins of nebulisation the nebuliser was switched off and the mice were exposed to the resulting aerosol for a further 5 minutes. Mice were sacrificed on day 14, body weight and the weight of the spleen, liver, lungs and kidney assessed. Lung weight was taken as an indirect measure of tumour burden. In some cases mice were dosed on days 4, 7, 9 and 11. Tumours were easily visible as black areas on the surface of the lungs and liver.

B16-F0 cells [3] = assay: Tumour development / liver metastases, organ weight and histology on day 21; format: in vivo, BALB/c male mice
Method: (§1) A number of studies have been completed where mice were treated on day 7 (post-tumour induction) with different cisplatin formulations by inhalation and the effect on subsequent tumour burdens, based on organ weight or direct assessment of the number and size distribution of tumours, was assessed 14 days later. The lungs, liver and spleen were cut into longitudinal slices and the kidney bisected and placed in a tissue cassette. After routine processing in paraffin wax, […] sections were mounted on a glass slide, dewaxed in 100% xylene and serially rehydrated in graded ethanol to water. Sections were then stained with haematoxylin and eosin and examined by light microscopy. For each organ the number and size of tiny (unmeasurable), small, medium and large tumours was determined counted in one H&E section. The size of the largest tumour deposit was also noted. The dimensions used to characterise tumours was small (0.5 to 1.4 mm), medium (1.5 to 2.9 mm), or large (>3 mm largest dimension). The percentage of tiny tumours was calculated using the total number of tumours present in the section.

B16-F0 cells [4] = assay: as above; format: in vivo, C57BL/6 male mice; conditions: Table 12 C57BL/6 male
Method: as §1

Leishmania donovani = assay: In vivo efficacy study using Leishmania donovani; set-up: species or system BALB/c mice; conditions: iv 0.2 ml (0.5 mg/ml cisplatin) on day 7 post-infection; burdens seven days later
Method: BALB/c mice were infected by intravenous injection (tail vein, no anaesthetic) with 1-2×10^7 L. donovani amastigotes (Carter et al., 1988). The day of parasite administration to the mice was designated day 0 of the experiment. On day 7 post-infection mice were treated by intravenous injection with 0.2 ml of the appropriate formulation by intravenous injection, without anaesthetic (n=4/treatment). On day 14 impression smears of the spleen and liver, and a smear of bone marrow, were made on to an individual glass microscope slide for each mouse at sacrifice. The slides were fixed in methanol for 30 secs, stained in 10% aqueous Giemsa stain (BDH, VWR International Ltd., Poole, UK) for 20 minutes, and then allowed to air dry. The number of parasites present/1000 host nuclei for the spleen, liver and bone marrow for each sample was determined at ×1000 magnification. The LDU was calculated by multiplying the number of parasites present/1000 host nuclei by the organ weight (gms) for the spleen and liver.

B16 F0 cells [5] = assay: In vivo lung cancer efficacy study, organ weights; conditions: Table 8; BALB/c female mice; inhalation day 7; Free drug (1 mg/ml), Processed cisplatin-NIV (0.5 mg/ml); sacrificed day 23
[6] = room temperature; cited from earlier work
[7] = after intravenous administration; cited from earlier work
[8] = Table 3, inhalation 6.5 minutes, 0.5 ml of 0.5 mg/ml
[9] = Table 4, inhalation 6.5 minutes, 0.5 ml of 0.5 mg/ml
[10] = Table 5, 0.5 mg/ml inhalation 6.5 mins on day 7
[11] = Table 5, 4.44 mg/kg iv (0.2 ml of 0.5 mg/ml) on day 7
[12] = Table 6 Expt 1, inhalation on days 4, 7, 9 and 11, cisplatin solution 0.5 mg/ml, processed cisplatin-NIV as prepared
[13] = Table 6 Expt 2, inhalation day 7 only, 0.1 mg/ml
[14] = Table 10, inhalation day 7, cisplatin solution 1 mg/ml, cisplatin-NIV 0.5 mg/ml
[15] = Table 11, inhalation day 7, cisplatin solution 1 mg/ml, cisplatin-NIV 0.1 mg/ml
[16] = Table 11, solution 1 mg/ml, NIV 0.1 mg/ml
[17] = Table 11, solution 1 mg/ml, NIV 0.1 mg/ml, large >3 mm
[18] = Table 11, solution 1 mg/ml, NIV 0.1 mg/ml, medium 1.5 to 2.9 mm
[19] = Table 11, solution 1 mg/ml, NIV 0.1 mg/ml, small 0.5 to 1.4 mm
[20] = Table 12 BALB/c male, inhalation day 7, cisplatin solution 1 mg/ml, cisplatin-NIV 0.5 mg/ml
[21] = Table 12 BALB/c male, solution 1 mg/ml, NIV 0.5 mg/ml
[22] = inhalation day 7, cisplatin solution 1 mg/ml, cisplatin-NIV 0.5 mg/ml
[23] = solution 1 mg/ml, NIV 0.5 mg/ml

[NH2][Pt]([NH2])([Cl])[Cl] [Cisplatin solution, cisplatin]
Detection of cisplatin by conventional HPLC analysis ([1]; 15 minutes after dosing): not possible to detect
Mean cisplatin concentration, Kidney [1, 8]: 6.81 ± 2.53 μg/ml/g tissue
Mean cisplatin concentration, Liver [1, 8]: 0.037 ± 0.04 μg/ml/g tissue
Mean cisplatin concentration, Lung lavages [1, 8]: 0.004 ± 0.002 µg/mL
Mean cisplatin concentration, Lungs [1, 8]: 0 ± 0 μg/ml/g tissue
Mean cisplatin concentration, Serum [1, 8]: 0.268 ± 0.1 µg/mL
Mean cisplatin concentration, Spleen [1, 8]: 0.018 ± 0.01 μg/ml/g tissue
Mean cisplatin concentration, Kidney ([1]; Table 3, iv 0.2 ml, 0.5 mg/ml): 0.951 ± 0.35 μg/ml/g tissue
Mean cisplatin concentration, Liver ([1]; Table 3, iv 0.2 ml, 0.5 mg/ml): 0.19 ± 0.13 μg/ml/g tissue
Mean cisplatin concentration, Lung lavages ([1]; Table 3, iv 0.2 ml, 0.5 mg/ml): 0.13 ± 0.07 µg/mL
Mean cisplatin concentration, Lungs ([1]; Table 3, iv 0.2 ml, 0.5 mg/ml): 0 ± 0 μg/ml/g tissue
Mean cisplatin concentration, Serum ([1]; Table 3, iv 0.2 ml, 0.5 mg/ml): 0.296 ± 0.13 µg/mL
Mean cisplatin concentration, Spleen ([1]; Table 3, iv 0.2 ml, 0.5 mg/ml): 0.065 ± 0.02 μg/ml/g tissue
Mean cisplatin concentration, Kidney [1, 9]: 0.55 ± 0.48 μg/ml/g tissue
Mean cisplatin concentration, Liver [1, 9]: 0.032 ± 0.02 μg/ml/g tissue
Mean cisplatin concentration, Lung lavages [1, 9]: 0.095 ± 0.06 µg/mL
Mean cisplatin concentration, Lungs [1, 9]: 0.032 ± 0.15 μg/ml/g tissue
Mean cisplatin concentration, Serum [1, 9]: 0 ± 0 µg/mL
Mean cisplatin concentration, Spleen [1, 9]: 0.346 ± 0.19 μg/ml/g tissue
Mean cisplatin concentration, Kidney ([1]; Table 4, iv 0.2 ml, 0.5 mg/ml): 0.55 ± 0.48 μg/ml/g tissue
Mean cisplatin concentration, Liver ([1]; Table 4, iv 0.2 ml, 0.5 mg/ml): 0.032 ± 0.02 μg/ml/g tissue
Mean cisplatin concentration, Lung lavages ([1]; Table 4, iv 0.2 ml, 0.5 mg/ml): 0.095 ± 0.06 µg/mL
Mean cisplatin concentration, Lungs ([1]; Table 4, iv 0.2 ml, 0.5 mg/ml): 0.032 ± 0.015 μg/ml/g tissue
Mean cisplatin concentration, Serum ([1]; Table 4, iv 0.2 ml, 0.5 mg/ml): 0.207 ± 0.02 µg/mL
Mean cisplatin concentration, Spleen ([1]; Table 4, iv 0.2 ml, 0.5 mg/ml): 0.346 ± 0.10 μg/ml/g tissue
Mean organ weight, Liver (B16 F0 cells [2]; [10]): 1.47 ± 0.05 g
Mean organ weight, Lungs (B16 F0 cells [2]; [10]): 0.22 ± 0.01 g
Mean organ weight, Liver (B16 F0 cells [2]; [11]): 1.44 ± 0.16 g
Mean organ weight, Lungs (B16 F0 cells [2]; [11]): 0.42 ± 0.03 g
Mean organ weight, Liver (B16 F0 cells [2]; [12]): 1.19 ± 0.07 g
Mean organ weight, Lungs (B16 F0 cells [2]; [12]): 0.21 ± 0.01 g
Mean organ weight, Liver (B16 F0 cells [2]; [13]): 1.30 ± 0.03 g
Mean organ weight, Lungs (B16 F0 cells [2]; [13]): 0.21 ± 0.01 g
Lung weight (B16 F0 cells [2]; Female mice, inhalation day 7, 1 mg/ml): 0.19 ± 0.01
Lung weight (B16 F0 cells [2]; Male mice, inhalation day 7, 0.5 mg/ml): 0.23 ± 0.02
% animals with visible metastases, Liver (B16-F0 cells [3]; [14]): (100%)
% animals with visible metastases, Lung (B16-F0 cells [3]; [14]): (100%)
Mean weight, Liver (B16-F0 cells [3]; [14]): 1.53 ± 0.03 g
Mean weight, Lung (B16-F0 cells [3]; [14]): 0.20 ± 0.01 g
Liver Weight (B16-F0 cells [3]; [15]): 1.65 ± 0.10
Lungs Histology, percentage of tiny tumours (B16-F0 cells [3]; [15]): Tiny 60%
Lungs Weight (B16-F0 cells [3]; [15]): 0.22 ± 0.01
Liver Histology, D largest tumour mass, breadth (B16-F0 cells [3]; [16]): 1.6 ± 0.43
Liver Histology, D largest tumour mass, length (B16-F0 cells [3]; [16]): D 2.38
Lungs Histology, D largest tumour mass, breadth (B16-F0 cells [3]; [16]): 1.19 ± 0.23
Lungs Histology, D largest tumour mass, length (B16-F0 cells [3]; [16]): D 1.4 ± 0.37 ×
Liver Histology, number of large tumours (L) (B16-F0 cells [3]; [17]): L 3.8 ± 2.15
Lungs Histology, number of large tumours (L) (B16-F0 cells [3]; [17]): L 0.40 ± 0.24
Liver Histology, number of medium tumours (M) (B16-F0 cells [3]; [18]): M 2.2 ± 1.56
Lungs Histology, number of medium tumours (M) (B16-F0 cells [3]; [18]): M 1.0 ± 0.6
Liver Histology, number of small tumours (S) (B16-F0 cells [3]; [19]): S 0.4 ± 0.24
Lungs Histology, number of small tumours (S) (B16-F0 cells [3]; [19]): S 2.5 ± 0.43
Liver Weight (B16-F0 cells [3]; [20]): 1.74 ± 0.05
Lungs Weight (B16-F0 cells [3]; [20]): 0.22 ± 0.02
Liver Tumours, D largest tumour mass, breadth (B16-F0 cells [3]; [21]): 2.3 ± 0.70
Liver Tumours, D largest tumour mass, length (B16-F0 cells [3]; [21]): D 2.63 ± 0.71 ×
Liver Tumours, number large (L) (B16-F0 cells [3]; [21]): L 2.5 ± 1.50
Liver Tumours, number medium (M) (B16-F0 cells [3]; [21]): M 2.0 ± 1.41
Liver Tumours, number small (S) (B16-F0 cells [3]; [21]): S 3.5 ± 1.32
Liver Tumours, percentage of tiny tumours (B16-F0 cells [3]; [21]): Tiny 0%
Lungs Tumours, D largest tumour mass, breadth (B16-F0 cells [3]; [21]): 1.08 ± 0.15
Lungs Tumours, D largest tumour mass, length (B16-F0 cells [3]; [21]): D 1.45 ± 0.13 ×
Lungs Tumours, number large (L) (B16-F0 cells [3]; [21]): L 0
Lungs Tumours, number medium (M) (B16-F0 cells [3]; [21]): M 0.5 ± 0.29
Lungs Tumours, number small (S) (B16-F0 cells [3]; [21]): S 7.75 ± 1.11
Lungs Tumours, percentage of tiny tumours (B16-F0 cells [3]; [21]): Tiny 60%
Liver Weight (B16-F0 cells [4]; [22]): 1.76 ± 0.16
Lungs Weight (B16-F0 cells [4]; [22]): 0.25 ± 0.03
Liver Tumours, D largest tumour mass, breadth (B16-F0 cells [4]; [23]): 4.44 ± 0.56
Liver Tumours, D largest tumour mass, length (B16-F0 cells [4]; [23]): D 5.64 ± 0.88 ×
Liver Tumours, number large (L) (B16-F0 cells [4]; [23]): L 6.4 ± 2.95
Liver Tumours, number medium (M) (B16-F0 cells [4]; [23]): M 2.8 ± 1.01
Liver Tumours, number small (S) (B16-F0 cells [4]; [23]): S 0.20 ± 0.20
Lungs Tumours, D largest tumour mass, breadth (B16-F0 cells [4]; [23]): 0.7 ± 0.20
Lungs Tumours, D largest tumour mass, length (B16-F0 cells [4]; [23]): D 1.35 ± 0.35 ×
Lungs Tumours, number large (L) (B16-F0 cells [4]; [23]): L 0
Lungs Tumours, number medium (M) (B16-F0 cells [4]; [23]): M 1.0 ± 0.6
Lungs Tumours, number small (S) (B16-F0 cells [4]; [23]): S 1.2 ± 0.73
Lungs Tumours, percentage of tiny tumours (B16-F0 cells [4]; [23]): Tiny 0%
Mean number of parasites ± SE (L. donovani liver parasite burdens) (Leishmania donovani): 2142 ± 249
Lung weight (B16 F0 cells [5]): 0.33 ± 0.02
Maximum aqueous solubility [6]: approximately 1 mg/ml
Share of the dose that reaches the lungs [7]: 0.1%
